This note sets out measurements from US12653887B2, “T cell manufacturing compositions and methods” (priority 2019, dated 2026).

Test [1] deals with T1, HLA-A02:01 (Homo sapiens, UniProt P04439, D140Y/D185E/D98H/E176V/E277Q/G131W/G231S/I119V/I121R/I166T/I218V/L300P/L318F/N151K/N90K/P208A/P217A/Q86G/Q94H/R138H/R169H/T345S).
T1 construct: endogenous in cells; host or cells: CD25 depleted PBMCs (donor cells)
The test can be described thus: Epitope presentation after RNA electroporation of CD25 depleted PBMC, HLA immunoprecipitation and LC-MS/MS. The class given is cell-based. As to conditions: over 24 hours. The method, then: CD25 depleted PBMC cells were electroporated with RNA (depicted in FIG. 60C) and cultured over a period of 24 hours. Cells were harvested at the indicated times, pelleted and flash frozen. HLA-A02:01-peptide complexes were immunoprecipitated and then peptides were eluted and analyzed by LC-MS/MS. Peptide eluted from electroporated cells (Light) were compared to heavy labelled standard peptides (Heavy) for positive identification. (FIG. 63A).

For test [2], the system named is CD8+ T cells. The test can be described thus: RNA nucleofection of differently prepared PBMCs, multimer assay. It counts as cell-based, human. As to conditions: for Hit Rate (%) / Mean Frequency: immunogen RNA (25 mer epitopes). As for the experimental part:
In this experiment, PBMCs were variously treated for depletion of certain populations and their expansion and multimer specificity was investigated. Yield of multimer specific T cells was tested by nucleofecting three sets of PBMC preparations with RNA constructs: (i) CD25 depleted PBMCs, (ii) CD14 and CD25 depleted PBMCs, (iii) Frozen CD14 and CD25 depleted PBMCs. In preparation (i), T cells were not separated from the APCs during nucleofection like in preparation (ii) and (iii). These were compared with a set of PBMCs loaded with peptides. All cells were treated with FLT3L prior to electroporation. […] It could be possible that less handling of PBMCs before RNA loading step was advantageous. Depletion of multiple cell components in the PBMC population required subjecting the cell population to multiple antibodies, washing steps and recovery steps, which amounts to handling stress for the cells.
CD25 depleted PBMCs had detectable Gli3 specific CD8+ T cells, and ME1 specific CD8+ T cells. ME1 specific CD8+ T cells were negligible in all the other sets.

Test [3] relates to CD8+ naïve T cells. In words: CD8+ naïve T cell induction (protocol 1 / protocol 2), pMHC multimer flow cytometry. It counts as cell-based, human. The following applies: for fraction of antigen specific CD8+ T cells (multimer): HD35. As for the experimental part: • DC media (Cellgenix) • CD14 microbeads, human, Miltenyi #130-050-201 • Cytokines and/or growth factors • T cell media (AIM V+RPMI 1640 glutamax+serum+PenStrep) • Peptide stocks—1 mM per peptide (HIV A02—5-10 peptides, HIV B07—5-10 peptides, DOM—4-8 peptides, PIN—6-12 peptides) Procedure: Step 1: Monocyte Isolation for DC Prep • 1. Calculate the approximate number of PBMCs to thaw based on expected DC yield for each donor. • 2. Thaw PBMCs and resuspend at ˜1×10^6-1×10^8 cells/mL in DC media. • 3. Add benzonase (1:1000 dilution) and place in incubator with cap loosened. • 4. Perform CD14^+ monocyte enrichment according to manufacturer protocol. • 5. Plate enriched cells in 6-well plates at 1×10^5-1×10^7 per well in DC media with one or more cytokines and/or growth factors selected from GM-CSF, IL-4, FLT3L, TNF-α, IL-1β, PGE1, IL-6, IL-7, IFN-α, R848, LPS, ss-rna40, and polyI:C. Step 2: Peptide Loading and Maturation • 1. Count DCs and split the cells according to the experimental conditions in 15 mL tubes; 0.01-1 million cells per condition. • 2. Spin @1200 rpm for 5 min and resuspend in 50-400 μL DC medium. Add peptide(s) and place in incubator with loosened cap for 0.5-3 hrs. Volumes were calculated for peptide pools at a concentration of 1 mM per peptide. A volume of each separate pool of A02 (5 peptides) and B07 (5 peptides) was added per well for a final concentration of 0.001-100 μM per peptide. • 3. After 0.5-3 hrs. add 200 μL to 1.5 mL of DC media containing maturation mix and transfer the cells to 24 well plate. The maturation mix contains one or more cytokines selected from GM-CSF, IL-4, FLT3L, TNF-α, IL-1β, PGE1, IL-6, IL-7, IFN-α, R848, LPS, ss-rna40, and polyI:C. Step 3: Setting Up Long Term Stimulation (LTS) Experiment • 1. Carefully remove all media from the wells of the DC plates, transferring each well to a separate well in a 24-well deepwell block. • 2. Wash each well with 0.5-3 mL T cell media and combine with DC media in the deepwell block. • 3. Add 100 μL to 2 mL T cell media to each well. • 4. Spin down DCs at 1200 rpm for 5 min. • 5. Remove all supernatant, resuspend DCs in 100 μL to 2 mL T cell media and transfer back into the correct wells. • 6. Thaw PBMCs in T cell media and resuspend at 0.5×10^6-4×10^6 cells/mL in T cell media with IL-7 and IL-15. • 7. Add 0.5-3 mL of prepared PBMCs to each well. Step 4: Feeding LTS
• AIM V media (Invitrogen) • Media 1 (RPMI 1640 glutamax+serum+PenStrep) • Media 2 (AIM V+RPMI 1640 glutamax+serum+PenStrep) Procedure: • Step 1: Plate 4 million PBMCs in each well of 24 well plate with one or more cytokines in Media 2. The one or more cytokines are selected from GM-CSF, IL-4, FLT3L, TNF-α, IL-1β, PGE1, IL-6, IL-7, IFN-α, R848, LPS, ss-rna40, and polyI:C. • Step 2: Peptide loading and maturation in Media 2 • 1. Make stock peptide pool of interest (except for no peptide condition) at 0.001-100 μM for shortmers and 0.001-100 μM for longmers final concentration in respective wells and mix. • 2. Incubate for 0.5-3 hr. • 3. Make stock maturation cocktail and add to each well after incubation and mix. […]

Setting [4] is: Donor 1, starting material CD14-CD25- (Base Arm).
Setting [5] is: Donor 1, starting material CD14-CD25- (Frozen).
Setting [6] is: Donor 1, starting material PBMC (CD25−), IL-7 and IL-15.
Setting [7] is: Donor 2, starting material CD14-CD25- (Base Arm).
Setting [8] is: Donor 2, starting material CD14-CD25- (Frozen).
[9] abbreviates: Donor 2, starting material PBMC (CD25−), IL-7 and IL-15.
[10] abbreviates: Donor 2, starting material PBMC (CD25−).

Regarding “CDK4: CDK4 epitope encoded in the RNA (25 mer epitopes) construct (ACDPHSGHFV)”, the “presentation of the epitope by HLA-A02:01 after RNA electroporation” value (“presentation of the epitope” below) in test [1] is given as “expressed readily as dominant epitopes”. Also, the “Hit Rate (%)” value in test [2] (setting [4]), in test [2] (setting [5]), in test [2] (setting [6]), in test [2] (setting [7]), in test [2] (setting [8]) and in test [2] (setting [9]) was 0% each time.
With “ME-1: previously identified neoantigen (PIN) short peptide; also encoded in RNA (FLDEFMEGV)”, the “presentation of the epitope” value in test [1] was “expressed readily as dominant epitopes”. The “Hit Rate (%)” value in test [2] (setting [4]) turned out to be 0%; in test [2] (setting [5]), 0%; in test [2] (setting [6]), 0%; in test [2] (setting [7]) it was 83%; in test [2] (setting [8]), 0%; in test [2] (setting [9]), 67%. For the same substance, the figures for the “Mean Frequency” value in test [2] (setting [7]), in test [2] (setting [8]) and in test [2] (setting [10]) were 0.01%, 0.01% and 2.97%, respectively. The “fraction of antigen specific CD8+ T cells (multimer)” value amounted to 0.927% in test [3] (Prot. 2 (bulk), day 19, confirmation); 4.15% in test [3] (Prot. 2 (bulk), day 19, initial); 2.34% in test [3] (Prot. 2 (bulk), day 26, confirmation); 12.6% in test [3] (Prot. 2 (bulk), day 26, initial). Moreover, the “CD8+ T cells specific to the peptide” value in test [3] (protocol 2, after a long induction) stood at 12.6%.
“ACTN4: previously identified neoantigen (PIN) short peptide; also encoded in RNA (FIASNGVKLV)”: the “presentation of the epitope” value in test [1] is reported as “expressed readily as dominant epitopes”. The “Hit Rate (%)” value in test [2] (setting [4]), in test [2] (setting [5]), in test [2] (setting [6]), in test [2] (setting [7]), in test [2] (setting [8]) and in test [2] (setting [9]) was 0% each time. In addition, the “fraction of antigen specific CD8+ T cells (multimer)” value in test [3] (Prot. 2 (CD25 depleted), day 26, confirmation) is listed as 0.095%; in test [3] (Prot. 2 (CD25 depleted), day 26, initial), 0.376%.
For “Gli3: Gli3 epitope encoded in the RNA (25 mer epitopes) construct (RLIPGIPTV)”, in test [1], the “presentation of the epitope” value is “expressed readily as dominant epitopes”. In addition, the “Hit Rate (%)” value in test [2] (setting [4]) is on record as 100%; in test [2] (setting [5]), 100%; in test [2] (setting [6]) it was 83%; in test [2] (setting [7]) it was 100%; in test [2] (setting [8]), 67%; in test [2] (setting [9]), 83%. The “Mean Frequency” value in test [2] (setting [4]) came out at 0.98%; in test [2] (setting [5]), 0.52%; in test [2] (Donor 1, starting material PBMC (CD25−)), 6.09%; in test [2] (setting [7]), 0.79%; in test [2] (setting [8]), 0.12%; in test [2] (setting [10]), 2.68%. In test [2] (FIG. 61B), the “increase in multimer positive cells, RNA transfected versus peptide loaded PBMCs” value is listed as “greater than 10 fold”.
